# Patent publication US10266511B2, “No-releasing nitrooxy-chromene conjugates” (priority 2014, dated 2019)
# Test system: PGE2 production
# Assay: Rat air-pouch model for acute inflammation (exudate PGE2 by ELISA)
# Type: in vivo, Sprague-Dawley rats
# Settings: oral gavage 0.01 mmol/kg 2 h before carrageenan, exudate 4 h after carrageenan
# Experimental: A study of chromene release is assessed by measurement of PGE2 levels, which are indicative of inflammatory response. Compounds of the present invention lower the inflammatory response by selective COX-2 inhibition, decreasing PGE-2 levels in patients.
# Animals: Sprague-Dawley rats (Charles River Laboratories, R #3234, PO #738990, male, 160-180 g) are received, individually examined, and housed in cages of five rats each. The rats are ear notched for identification purposes.
# Compounds and dosing solutions: The vehicle is prepared by dissolving 40 g (2-hydroxypropyl)-β-cyclodextrin (HP-β-CD, Sigma, Cat. 332593, lot MKBJ5858V) in 160 mL sterile saline for injection, USP (Hospira, lot 26-801-FW) making a 25% solution which is filter sterilized (0.2 μm, Nalgene, Cat. 151-4020, lot 1095610). A 1% carrageenan solution is prepared by dissolving 0.6 g λ-carrageenan (Fluka, Cat. 22049, lot 1318338) in hot 60 mL sterile saline for injection, USP. This solution is stored at 4-8° C. Test compounds are dissolved in DMSO (Fisher Scientific, Cat. D128-500, lot 874999) to make 75 mM stocks. 0.25 mL of compound DMSO stocks are mixed with 12.5 mL of HP-β-CD solution at 50° C. (maximum DMSO concentration is 2% of the final volume of vehicle,). […]
# Day 6—Compound administration and carrageenan insult: At commencement of the study, each rat is weighed and sorted into treatment groups of 5 rats/group based upon average weight. […] The pouch is gently massaged, the exudate immediately removed, and exudate volume recorded. […]
# Data analysis: The exudate samples are thawed to room temperature and assayed by ELISA for PGE2 (R&D Systems, Cat. KGE004B, lot 307711). Statistical significance of treatments on mean exudate volumes are determined by comparison of means for treatment groups with vehicle group. Mean cytokine concentrations and standard deviations are determined for each group. Statistical significance of treatments on cytokine concentrations are determined for each compound group compared to vehicle group. Statistical significance (p-value) is calculated vs control groups by Student's t-Test. […]
row,Structure (SMILES),% Inhibition of PGE2 production relative to control (+/−S.D.)
1,"CC(C)(C)c1cc2c(cc1Cl)C=C(C(=O)OC(CO[N+](=O)[O-])CO[N+](=O)[O-])C(C(F)(F)F)O2 (stereo not drawn) [Example 22a, 1,3-bis(Nitrooxy)propan-2-yl 7-(tert-butyl)-6-chloro-2-(trifluoromethyl)-2H-chromene-3-carboxylate]",75.4 (+/−9.1) %
2,"CC(C)(C)c1cc2c(cc1Cl)C=C(C(=O)O[C@H]1CO[C@H]3[C@@H]1OC[C@H]3O[N+](=O)[O-])[C@@H](C(F)(F)F)O2 [Example 33, (S)-(3S,3aR,6R,6aS)-6-(nitrooxy)hexahydrofuro[3,2-b]furan-3-yl 7-(tert-butyl)-6-chloro-2-(trifluoromethyl)-2H-chromene-3-carboxylate]",91.8 (+/−4.9) %
3,"CC(C)(C)c1cc2c(cc1Cl)C=C(C(=O)O[C@H]1CO[C@H]3[C@@H]1OC[C@H]3O[N+](=O)[O-])C(C(F)(F)F)O2 (stereo partly drawn) [Example 33a, (3S,3aR,6R,6aS)-6-(nitrooxy)hexahydrofuro[3,2-b]furan-3-yl 7-(tert-butyl)-6-chloro-2-(trifluoromethyl)-2H-chromene-3-carboxylate]",76.7 (+/−7.8) %
